One data set deals with OCI-LY10 xenograft tumor. The experiment in a line: OCI-LY10 xenograft tumor model. In kind it is in vivo. The following applies: for TGI: bid. How it is done:
(§1) CB17/SCID female mice with serious immune deficiency were purchased from Beijing Vital River Laboratory Animal Technology Co., Ltd. and bred in SPF animal houses. Human OCI-LY10 cells (Shanghai Junrui-UFBN0102) were cultured in an RPMI 1640 culture medium containing 10% fetal bovine serum, 100 U/mL penicillin and 100 μg/mL streptomycin through monolayer culture in vitro in an incubator (37° C., 5% C02). Routine treatment was performed twice a week for passaging. At a cell saturation of 80%-90% and a required number, the cells were harvested and counted. 0.2 mL (1×10^7) of OCI-LY10 cells (together with matrigel at a volume ratio of 1:1) were subcutaneously inoculated into the right back of each mouse, and the tumor size could be measured about one week after inoculation. Tumor size was measured using a vernier caliper and tumor volume was calculated using the following formula: tumor volume=(length×width^2)/2.

Another data set concerns TMD-8 xenograft tumor. The data set is described as follows: TMD-8 xenograft tumor model. The class given is in vivo. The following applies: for TGI: bid. As for the experimental part: as §1, with “TMD-8” for “OCI-LY10”, “Junrui-UFBN1682)” for “Junrui-UFBN0102)”
Data set [1] deals with T1, BTK(C481S) (Homo sapiens (Human), UniProt Q06187, C481S). The data set is described as follows: In vitro inhibitory activity against BTK(C481S) enzyme (33P-ATP filter binding). The following applies: class symbols; read-out: IC50 BTK(C48IS). The class given is biochemical. As for the experimental part:
(§2) The substrate solution was prepared by adding the substrate poly(Glu, Tyr) sodium salt (Sigma Aldrich, St. Louis, Mo.) to the substrate reaction buffer (20 mM Hepes (pH 7.5), 10 mM MgCl2, 1 mM EGTA, 0.02% Brij35, 0.02 mg/mL BSA, 0.1 mM Na3VO4, 2 mM DTT and 1% DMSO) (final substrate concentration in the reaction solution was 0.2 μM). Test compound was formulated into stock solutions at 10 mM concentration with 100% DMSO, and 3-fold serial dilution for 10 doses was performed in a 384-well cyclic olefin copolymer LDV microplate. […] Test compound in 100% DMSO was then added to the kinase reaction mixture by acoustic liquid transfer technology (Echo 550; nanoliter range) (Labcyte Inc, Sunnyvale, Calif.) and incubated for 20 min at room temperature. 33P-ATP (specific activity 10 μCi/μL) was added to the reaction mixture to initiate the reaction, followed by incubation at room temperature for 2 h. A small portion of the reaction mixture was dropped onto P-81 ion exchange filter paper (Whatman). After washing the unbound phosphate from the filter paper with 0.75% phosphate buffer (three times) and drying, the remaining radioactivity on the filter paper was measured. The kinase activity was expressed as the percentage of the remaining kinase activity in the test sample to the kinase activity in the vehicle (dimethyl sulfoxide) blank control. IC50 values were calculated by curve fitting the data obtained using Prism (GraphPad Software).

The target of another data set is BTK(wt) (Homo sapiens (Human), UniProt Q06187). The data set is described as follows: In vitro inhibitory activity against BTK(wt) enzyme (33P-ATP filter binding). The following applies: class symbols. The class given is biochemical. How it is done: as §2
For the next data set, the system named is TMD-8. The data set is described as follows: In vitro tumor cell proliferation inhibition, TMD-8 (CellTiter-Glo). The class given is cell-based. Conditions: Homo sapiens, TMD8; TMD-8 cells, 72 h. How it is done: (1) Method • The tumor cell line (TMD-8/OCY-LY10) was suspended in RPMI1640+FBS10% and cultured in an incubator (37° C., 5% CO2). Cells were passaged periodically, and cells at logarithmic growth phase were collected for plating. • Cell staining was performed with trypan blue and viable cells were counted. • Cell concentration was adjusted to 7000 cells/well with medium. • 90 μL of cell suspension was added to a 96-well plate and cell-free culture medium was added to the blank control wells. • Cells in the 96-well plate were incubated overnight in an incubator (37° C., 5% CO2, 100% relative humidity). • Preparation of 400× compound storage plates: test compounds and reference drug were each dissolved in DMSO and 3× diluted from the highest concentration (400 μM) to the lowest concentration (0.61 μM). • Preparation of 10× compound working solutions: 78 μL of cell culture medium was added to a V-bottom 96-well plate, and 2 μL of the compound was pipetted from the 400× compound storage plate into the 96-well plate. Vehicle control wells and blank control wells were added with 2 μL of DMSO. […] Inhibition rates of compounds at different concentrations were calculated in Excel, followed by plotting the inhibition curves and calculating IC50 values with GraphPad Prism.
A general note: Cellular ATP, detected with luciferase, serves as a proxy for viable cell number.

Data set [2] deals with T1, BTK(C481S). The experiment in a line: pBTK inhibition in HEK293 cells transfected with BTK(C481S) (ELISA). In kind it is cell-based. Conditions: 2 h. As for the experimental part: For positive (high signal) controls, cells were treated with 0.5% DMSO alone. […] The absorbance was read at 450 nm. • Based on the absorbance readings of the positive and negative control values, the % inhibition value was calculated according to the following formula: (% INH=((positive control−sample)/(positive control−negative control))×100. • The Z′ value was calculated based on the following formula: 1−((3×standard deviation of positive+3×standard deviation of negative)/(mean positive−mean negative)). • The […] was plotted using GraphPad Prism. • IC50 values were determined after sigmoidal dose-response curve fitting.

Values joined by “and” are separate entries in the source; they are usually repeats but may differ in a detail not shown here. Equal entries are not always repeated. A value given as a limit tells only on which side of the number the result lay.

T1 sequence (Q06187 whole entry C481S): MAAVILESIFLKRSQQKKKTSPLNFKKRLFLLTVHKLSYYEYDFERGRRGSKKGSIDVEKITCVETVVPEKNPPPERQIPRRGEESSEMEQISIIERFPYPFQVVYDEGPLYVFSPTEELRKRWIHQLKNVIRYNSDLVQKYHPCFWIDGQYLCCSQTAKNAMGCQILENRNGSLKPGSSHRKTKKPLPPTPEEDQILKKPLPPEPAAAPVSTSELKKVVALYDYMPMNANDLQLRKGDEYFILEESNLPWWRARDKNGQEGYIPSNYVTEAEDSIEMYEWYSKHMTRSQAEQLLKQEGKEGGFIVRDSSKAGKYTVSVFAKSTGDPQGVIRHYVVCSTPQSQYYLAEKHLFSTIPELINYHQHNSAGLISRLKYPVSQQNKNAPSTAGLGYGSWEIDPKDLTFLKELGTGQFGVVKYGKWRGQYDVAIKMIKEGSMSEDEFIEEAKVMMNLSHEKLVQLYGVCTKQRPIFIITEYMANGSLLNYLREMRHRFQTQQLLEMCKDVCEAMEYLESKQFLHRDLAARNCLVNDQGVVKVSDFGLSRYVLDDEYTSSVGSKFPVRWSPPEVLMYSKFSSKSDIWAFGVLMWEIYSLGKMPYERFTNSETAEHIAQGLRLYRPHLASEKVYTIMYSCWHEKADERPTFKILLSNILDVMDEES
BTK(wt), sequence (Q06187 whole entry): as the sequence (Q06187 whole entry C481S) above, with S481C counted along it

Take `Nc1nccn2c(C34CCC(NC(=O)CN5CCOCC5)(CC3)C4)nc(-c3ccc(C(=O)Nc4cc(C(F)(F)F)ccn4)cc3)c12` [Compound A-10-10, 4-(8-amino-3-(4-(2-morpholinoacetamido)bicyclo[2.2.1]heptan-1-yl)imidazo[1,5-a]pyrazin-1-yl)-N-(4-(trifluoromethyl)pyridin-2-yl)benzamide]: the xenograft tumors disappearance entry with OCI-LY10 xenograft tumor (25 mg/kg group, after 28 days of administration) is on record as “disappeared completely”; in the data set with OCI-LY10 xenograft tumor (50 mg/kg group, after 21 days of administration), “completely disappeared”. For the same compound, the “tolerance of tumor-bearing mice” value in the data set on OCI-LY10 xenograft tumor (all dosages) and in the data set with TMD-8 xenograft tumor (all dosages) was “good tolerance” throughout. Besides, the “effect on body weight of tumor-bearing mice” value with OCI-LY10 xenograft tumor (all treatment groups) and in the data set with TMD-8 xenograft tumor (all treatment groups) was “no significant weight loss” throughout. In addition, the TGI came out at 110% in the data set with OCI-LY10 xenograft tumor (intragastric 25 mg/kg), 110% in the data set with OCI-LY10 xenograft tumor (intragastric 50 mg/kg), 94% in the data set on TMD-8 xenograft tumor (intragastric 25 mg/kg) and 104% with TMD-8 xenograft tumor (intragastric 50 mg/kg). In the data set on TMD-8 xenograft tumor (50 mg/kg group, after 27 days of administration), the “xenograft tumors disappeared (fraction)” value is 5/8. The IC50 – broadly, the concentration needed to halve the response being measured – on BTK(C481S) [1] was at most 0.1 nM; on BTK(wt), 1 to 10 nM; in the data set on TMD-8, 2.9 nM; against BTK(C481S) [2], 66 nM and 63 nM.

Values taken from patent US11420975B2, “Substituted imidazo[1,5-a]pyrazines as Bruton's tyrosine kinase inhibitors” (TRANSTHERA SCIENCES (NANJING), INC., priority 2018, dated 2022).
